Source: patent publication US3997549A, “N-arylsulfenylated derivatives of benzofuranyl methylcarbamates” (priority 1973, dated 1976)
Values after ≈ are worked out from the molar mass of the structure shown. Read-outs that look alike come from different tables or passages of the source.

Assays:
houseflies = experiment: whole plant or invertebrate; settings: Musca domestica, topical, 24 h, read-out: Houseflies LD50
Procedure: Toxicity of the compounds of the present invention to houseflies was tested using the technique described by March and Metcalf in Bull. Calif. State Dept. Agr. […] Adult female houseflies were treated with one drop of acetone solution, applied to the prothorax, using a syringe calibrated to deliver 1.00 ± 0.05 mm^3 drops. Twenty flies were treated at each dosage, each test compound was applied at 8 to 10 dosage levels. Each test was replicated three times. […] A one-inch square of cotton saturated with 40% sugar solution was provided for food in each carton. The cartons of flies were held in a constant temperature chamber at 60° F and 60% relative humidity for 24 hours before mortality counts were made. Flies totally unable to make crawling or walking movements were counted as dead. LD50 values were calculated in the conventional manner.

Culex fatigans = experiment: whole plant or invertebrate; settings: Culex quinquefasciatus, 24 h, read-out: Mosquitoes LC50
Procedure: The appropriate amount of stock solution was added with stirring to 100 ml of tap water and 20-25 fourth instar larvae of Culex fatigans were placed in the solution. After twenty-four hours, the counts were taken. Larvae not able to rise to the surface on touch were counted as dead. Each concentration was run in duplicate and each material was run on two or three different days. The average percent mortality was plotted against the logarithm of the concentration (in ppm) and the LC50 value determined by inspection.

in vivo = settings: mouse, po
Procedure: Acute oral toxicity of the compounds of the present invention to mice was determined after the manner of Hollingworth, Fukuto, and Metcalf in J. Agr. […] A dose of 0.25 ml of each solution was administered to each of four female white Swiss mice using the "bolus" - tipped syringe. […] Final mortality determinations were made forty-eight hours after treatment.

confused flour beetle [1] = experiment: Initial contact activity, confused flour beetle; assay type: in vivo; settings: Tribolium confusum, read-out: % Kill, FB (initial contact)
Procedure: (§1) Initial Contact Activity: One-half gram of test compound was dissolved in 40 ml of acetone and this solution was dispersed in 360 ml of water containing one drop of isooctyl phenyl polyethoxyethanol. An aliquot of this solution was diluted with water to provide a solution containing 1250 ppm of active ingredient. Test organisms and techniques were as follows: The activities against the Mexican bean beetle (Epilachna varivestis Muls.) and the southern army worm (Prodenia eridania [Cram.]) were evaluated by dipping the leaves of pinto bean plants into the test solution and infesting the leaves with the appropriate immature form insects when the foliage had dried; the activity against the pea aphid (Macrosiphum pisi [Harris]) was evaluated on broad bean plants whose leaves were dipped before infestation with adult aphids; the activity against the two-spotted spider mite (Tetranychus urticae [L.]) was evaluated on pinto bean plants whose leaves were dipped after infestation with adult mites; the activities against the milkweed bug (Oncopeltus fascinatus [Dallas]) and the plum curculio (Conotrachelus nenuphar [Herbst]) were evaluated by spraying the test solutions into glass dishes containing the adult insects; the activities against the granary weevil (Sitophilus granarius [L.]) and the confused flour beetle (Tribolium confusum [duVal]) were evaluated by introducing the insects into glass dishes which had been previously sprayed with test solution and allowed to dry. All organisms in the test were maintained in a holding room at 80° F. and 50% relative humidity for an exposure period of forty-eight hours. At this time the number of dead and living insects were counted and the percent kill was calculated.

confused flour beetle [2] = experiment: Residual contact activity, confused flour beetle; assay type: in vivo; settings: Tribolium confusum, 48 h, read-out: % Kill, FB (residual contact)
Procedure: as §1
The residual contact activity of the compounds was determined on the same organisms using the technique described above, except that in each case the treated surface was allowed to dry and was exposed to normal light and air for seven days before introduction of the mites or insects. The compounds show a high order of residual activity toward the test insects.

southern army worm [3] = settings: 2880 min
Mexican bean beetle [4] = experiment: whole plant or invertebrate; settings: Epilachna varivestis, 48 h, read-out: % Kill, BB (systemic)
pea aphid [5] = experiment: whole plant or invertebrate; settings: Acyrthosiphon pisum, 48 h, read-out: % Kill, PA (systemic)
two-spotted spider mite [6] = experiment: whole plant or invertebrate; settings: Tetranychus urticae, 48 h, read-out: % Kill, SM (systemic)
milkweed bug [7] = experiment: Initial contact activity, milkweed bug; settings: Oncopeltus fasciatus, 48 h, read-out: % Kill, MWB (initial contact)
plum curculio [8] = experiment: Initial contact activity, plum curculio; settings: Conotrachelus nenuphar, 48 h, read-out: % Kill, PC (initial contact)
milkweed bug [9] = experiment: Residual contact activity, milkweed bug; settings: Oncopeltus fasciatus, 48 h, read-out: % Kill, MWB (residual contact)
granary weevil [10] = experiment: Initial contact activity, granary weevil; settings: Sitophilus granarius, 48 h, read-out: % Kill, GW (initial contact)
plum curculio [11] = experiment: Residual contact activity, plum curculio; settings: Conotrachelus nenuphar, 48 h, read-out: % Kill, PC (residual contact)
granary weevil [12] = experiment: Residual contact activity, granary weevil; settings: Sitophilus granarius, 48 h, read-out: % Kill, GW (residual contact)
southern army worm [13] = experiment: Initial contact activity, southern army worm; settings: 1250 ppm, 48 h exposure
Mexican bean beetle [14] = experiment: Initial contact activity, Mexican bean beetle; settings: Epilachna varivestis, 48 h, read-out: % Kill, BB (initial contact)
southern army worm [15] = experiment: Residual contact activity, southern army worm; settings: 1250 ppm; 7 days; 2880 min
Mexican bean beetle [16] = experiment: Residual contact activity, Mexican bean beetle; settings: Epilachna varivestis, 48 h, read-out: % Kill, BB (residual contact)
two-spotted spider mite [17] = experiment: Initial contact activity, two-spotted spider mite; settings: Tetranychus urticae, 48 h, read-out: % Kill, SM (initial contact)
two-spotted spider mite [18] = experiment: Residual contact activity, two-spotted spider mite; settings: Tetranychus urticae, 48 h, read-out: % Kill, SM (residual contact)
pea aphid [19] = experiment: Initial contact activity, pea aphid; settings: Acyrthosiphon pisum, 48 h, read-out: % Kill, PA (initial contact)
pea aphid [20] = experiment: Residual contact activity, pea aphid; settings: Acyrthosiphon pisum, 48 h, read-out: % Kill, PA (residual contact)
[21] = 39 ppm soil watering, separate test vs carbofuran

Structure (SMILES) | LD50 (houseflies) [mg/kg] | LC50 (Culex fatigans) [ng/mL] | LD50 at 48 h (in vivo) [mg/kg] | % Kill, AW (systemic) (southern army worm [3]; [21]) [%] | % Kill, AW (systemic) (southern army worm [3]; 156 ppm soil watering) [%] | mortality at 39 ppm (Mexican bean beetle [4]) [%] | mortality at 156 ppm (Mexican bean beetle [4]) [%] | mortality at 39 ppm (pea aphid [5]) [%] | mortality at 39 ppm (two-spotted spider mite [6]) [%] | mortality at 156 ppm (two-spotted spider mite [6]) [%] | mortality at 1250 ppm (milkweed bug [7]) [%] | mortality at 1250 ppm (plum curculio [8]) [%] | mortality at 1250 ppm (milkweed bug [9]) [%] | mortality at 1250 ppm (granary weevil [10]) [%] | mortality at 1250 ppm (plum curculio [11]) [%] | mortality at 1250 ppm (granary weevil [12]) [%] | % Kill, AW (initial contact) (southern army worm [13]) [%] | mortality at 1250 ppm (Mexican bean beetle [14]) [%] | % Kill, AW (residual contact) (southern army worm [15]) [%] | mortality at 1250 ppm (Mexican bean beetle [16]) [%] | further results
Cc1ccc(SN(C)C(=O)Oc2cccc3c2OC(C)(C)C3)cc1 [IV, 2,3-Dihydro-2,2-dimethyl-7-benzofuranyl(methyl)(4-methylphenylthio)carbamate] | 9 | 4.5 (≈ 0.0131 µM) | 100 to 125 | 100 | 100 | 100 | 100 | 100 | 24 | 64 | 100 | 100 | 100 | 100 | 100 | 100 | 100 | 100 | 100 | 100 | mortality at 1250 ppm (confused flour beetle [1]; 48 h): 100%; mortality at 1250 ppm (confused flour beetle [2]): 92%; mortality at 1250 ppm (two-spotted spider mite [17]): 100%; mortality at 1250 ppm (two-spotted spider mite [18]): 94%
Cc1cccc(SN(C)C(=O)Oc2cccc3c2OC(C)(C)C3)c1 [Example X, 2,3-Dihydro-2,2-dimethyl-7-benzofuranyl (3-methylphenylthio)(methyl)carbamate] | 6.5 | 4 (≈ 0.0116 µM) | 25 to 50 | 100 | 100 | 100 | 100 | 100 | 26 | 28 | 100 | 100 | 100 | 100 | 95 | 100 | 100 | 100 | 100 | 100 | mortality at 1250 ppm (confused flour beetle [1]; 1250 ppm, 48 h exposure): 100%; mortality at 1250 ppm (confused flour beetle [2]; 1250 ppm, 7 days): 100%; mortality at 156 ppm (pea aphid [5]): 100%; mortality at 1250 ppm (pea aphid [19]): 100%; mortality at 1250 ppm (pea aphid [20]): 100%; mortality at 1250 ppm (two-spotted spider mite [17]): 100%; mortality at 1250 ppm (two-spotted spider mite [18]): 30%
Cc1cc(C(C)(C)C)ccc1SN(C)C(=O)Oc1cccc2c1OC(C)(C)C2 [Example VI, 2,3-Dihydro-2,2-dimethyl-7-benzofuranyl [4-(tert-butyl)-2-methylphenylthio] (methyl)carbamate] | 7.5 | 2 (≈ 0.00501 µM) | 75 to 125 | 0 | 0 | 85 | 100 | 35 | 11 | 6 | 100 | 100 | 95 | 100 | 53 | 100 | 95 | 100 | 100 | 100 | mortality at 1250 ppm (confused flour beetle [1]; 1250 ppm, 48 h exposure): 90%; mortality at 1250 ppm (confused flour beetle [2]; 1250 ppm, 7 days): 100%; mortality at 156 ppm (pea aphid [5]): 95%; mortality at 1250 ppm (pea aphid [19]): 0%; mortality at 1250 ppm (pea aphid [20]): 0%; mortality at 1250 ppm (two-spotted spider mite [17]): 77%; mortality at 1250 ppm (two-spotted spider mite [18]): 7%
CN(Sc1ccc(C(C)(C)C)cc1)C(=O)Oc1cccc2c1OC(C)(C)C2 [Example III, 2,3-Dihydro-2,2-dimethyl-7-benzofuranyl (4-tert-butylphenylthio)(methyl)carbamate] | 2.7 | 2.5 (≈ 0.00648 µM) | 75 | 0 | 0 | 56 | 100 | 5 | 1 | 4 | 100 | 100 | 100 | 100 | 95 | 100 | 100 | 100 | 31 | 100 | mortality at 1250 ppm (confused flour beetle [1]; 1250 ppm, 48 h exposure): 100%; mortality at 1250 ppm (confused flour beetle [2]; 1250 ppm, 7 days): 100%; mortality at 156 ppm (pea aphid [5]): 43%; mortality at 1250 ppm (two-spotted spider mite [17]): 27%; mortality at 1250 ppm (two-spotted spider mite [18]): 2%
Cc1ccccc1SN(C)C(=O)Oc1cccc2c1OC(C)(C)C2 [Example II, 2,3-Dihydro-2,2-dimethyl-7-benzofuranyl (methyl)(2-methylphenylthio)carbamate] | 3.7 | 4 (≈ 0.0116 µM) | 100 to 125 | 85 | 100 | 100 | 100 | 100 | 5 | 5 | 100 | 100 | 100 | 100 | 100 | 100 | 100 | 100 | 100 | 100 | mortality at 1250 ppm (confused flour beetle [1]; 1250 ppm, 48 h exposure): 98%; mortality at 1250 ppm (confused flour beetle [2]; 1250 ppm, 7 days): 98%; mortality at 1250 ppm (two-spotted spider mite [17]): 28%; mortality at 1250 ppm (two-spotted spider mite [18]): 13%
